4 molecules from US6492369B2, “Therapeutic agents for drug dependence” (Santen Pharmaceutical Co., Ltd., priority 1998, dated 2002) can be followed below.

Where a name gives a salt, the structure may show the parent alone.

The test system of series [1] is Male Sprague-Dawley rats. In words: Conditioned place preference test (CPP method): potential of test compound and addicting drugs to induce psychological dependence. Type of series: in vivo, rat. The source says: Effects of 1,4-(diphenylalkyl)piperazine derivatives on the potency of induction of psychological dependence by addicting drugs were studied by using the conditioned place preference test (CPP method) according to the report of Suzuki et al. (Life Science, 57, 1277-1284 (1995)).
Test of Potential to Induce Psychological Dependence of Test Compound and Addicting Drugs
Male Sprague-Dawley rats, body weight: about 250 g, 5.5 weeks old, were used in groups of eight.
An apparatus was used wherein a rectangular parallelepiped box was divided into two compartments at the center in length by a sliding partition and one compartment was made white, while the other compartment was made black.
A test compound and addicting drugs to be used were dissolved in physiological saline.
The solutions of the test compound (0.3 mg/ml, 1 mg/ml and 3 mg/ml solutions) were administered subcutaneously to the rats (1 ml/kg) The solutions of the addicting drugs were administered subcutaneously to morphine administration groups (2 mg/ml, 4 mg/ml and 8 mg/ml solutions of morphine hydrochloride) and intraperitonealy to cocaine administration groups (2 mg/ml, 4 mg/ml and 8 mg/ml solutions of cocaine hydrochloride) and to methamphetamine administration groups (1 mg/ml, 2 mg/ml and 4 mg/ml) (1 ml/kg respectively). Physiological saline was administered by the same method as the method of administration of each administration group (1 ml/kg respectively).
The rats were placed in the box from which the partition had been removed. Each cumulative time the rats had spent in the white compartment and the black compartment respectively was measured for 15 minutes, and the spent time in the compartment where the rats had spent a longer time (pre-value) was determined from a difference between them. This operation was carried out once a day for three days.
The box was divided into two compartments by the partition. The solution of the addicting drug or the solution of the test compound was administered subcutaneously to the rats. The rats were confined for 50 minutes to the compartment in which the rats had spent a shorter time in pre-conditioning. The next day, physiological saline was administered subcutaneously to the rats and, next, the rats were confined for 50 minutes to the compartment in which the rats had spent a longer time. This training was repeated three times (2×3 days).
The partition was removed from the box, and the conditioned rats were placed in the box. Each cumulative time the rats spent in the white compartment and the black compartment respectively was measured for 15 minutes, and the spent time in the compartment where the rats had spent a longer time (post value) was determined from a difference between them.
The cumulative time the rats had spent in the respective compartments was measured by using an infrared sensor.
The potential to induce psychological dependence was evaluated by using CPP scores (sec.) showing a motivational effect of the conditioning drug as an index.
The motivational effects of the addicting drugs and the test compound, which were the conditioning drugs, were determined by the following equation.
CPP score (sec.)=post value (sec.)−pre value (sec.)

For series [2], the system named is Male Sprague-Dawley rats. In words: Conditioned place preference test (CPP method): effect of test compound on potential of addicting drugs to induce psychological dependence. Type of series: in vivo, rat. The conditions noted are these: for Inhibition rate (%) of CPP score: average of eight. The source says: (Life Science, 57, 1277-1284 (1995)). Effect of Test Compound on Potential of Addicting Drugs to Induce Psychological Dependence Male Sprague-Dawley rats, body weight: about 250 g, 5.5 weeks old, were used in groups of eight. An apparatus was used wherein a rectangular parallelepiped box was divided into two compartments at the center in length by a sliding partition and one compartment was made white, while the other compartment was made black. A test compound and addicting drugs to be used were dissolved in physiological saline. The solutions of the test compound (1 mg/ml and 3 mg/ml) were administered subcutaneously to the rats (1 ml/kg). […] The rats were placed in the box from which the partition had been removed. Each cumulative time the rats had spent in the white compartment and the black compartment respectively was measured for 15 minutes, and the spent time in the compartment where the rats had spent a longer time (pre value) was determined from a difference between them. This operation was carried out once a day for three days. The box was divided into two compartments by the partition. The solution of the test compound was administered to the rats, and 30 minutes later, the solution of the addicting drug was further administered to the rats. The rats were confined for 50 minutes to the compartment in which the rats had spent a shorter time in pre-conditioning. The next day, only physiological saline was administered to the rats, and next the rats were confined for 50 minutes to the compartment in which the rats had spent a longer time. This training was repeated three times (2×3 days). The partition was removed from the box, and the conditioned rats were placed in the box. Each cumulative time the rats had spent in the white compartment and the black compartment respectively was measured for 15 minutes, and the spent time in the compartment where the rats had spent a longer time (post value) was determined from a difference between them. The cumulative time the rats had spent in the respective compartments was measured by using an infrared sensor. The potential of the addicting drugs to induce psychological dependence was evaluated by using CPP scores (sec.) showing a motivational effect of the conditioning drug as an index. CPP score (sec.)=post value (sec.)−pre value (sec.) The effects of the test compound on the potential of the addicting drugs to induce psychological dependence was determined by the following equation as inhibition rates (%). Inhibition rate (%)=[(A−B)/A]×100 A: CPP score (sec.) of physiological saline administration group B: CPP score (sec.) of test compound administration group

Setting [3] is: 2 mg/kg (morphine s.c., cocaine i.p.), average of eight.
The mark [4] stands for this setting: 4 mg/kg (morphine s.c., cocaine i.p.), average of eight.
The mark [5] stands for this setting: 8 mg/kg (morphine s.c., cocaine i.p.), average of eight.

Take `COC(=O)[C@H]1[C@@H](OC(=O)c2ccccc2)C[C@@H]2CC[C@H]1N2C.Cl` [Cocaine, cocaine hydrochloride]: the results for the “CPP score” value with Male Sprague-Dawley rats [1] (setting [3]), in the series with Male Sprague-Dawley rats [1] (setting [4]) and with Male Sprague-Dawley rats [1] (setting [5]) were 141 s, 178 s and 259 s, respectively. For the same molecule, the “Potential to induce psychological dependence (motivational effect, in words)” value with Male Sprague-Dawley rats [1] (all doses tested) is given as “appetitive effects”.

On to `COc1ccc(CCN2CCN(CCCc3ccccc3)CC2)cc1OC` [Compound A, 1-[2-(3,4-dimethoxyphenyl)ethyl]-4-(3-phenylpropyl)piperazine dihydrochloride], for which the “Inhibition rate (%) of CPP score” value in the series on Male Sprague-Dawley rats [2] (Cocaine administration group (cocaine hydrochloride 4 mg/kg i.p.), Compound A 1 mg/kg s.c. 30 min before) is listed as 26%; in the series with Male Sprague-Dawley rats [2] (Cocaine administration group (cocaine hydrochloride 4 mg/kg i.p.), Compound A 3 mg/kg s.c. 30 min before) it was 55%; in the series on Male Sprague-Dawley rats [2] (Methamphetamine administration group (methamphetamine hydrochloride 2 mg/kg i.p.), Compound A 1 mg/kg s.c. 30 min before), 55%; with Male Sprague-Dawley rats [2] (Methamphetamine administration group (methamphetamine hydrochloride 2 mg/kg i.p.), Compound A 3 mg/kg s.c. 30 min before) it was 57%; with Male Sprague-Dawley rats [2] (Morphine administration group (morphine hydrochloride 8 mg/kg s.c.), Compound A 1 mg/kg s.c. 30 min before), 38%; in the series with Male Sprague-Dawley rats [2] (Morphine administration group (morphine hydrochloride 8 mg/kg s.c.), Compound A 3 mg/kg s.c. 30 min before) it was 50%. In the series with Male Sprague-Dawley rats [2] (morphine, cocaine and methamphetamine administration groups, 1 and 3 mg/kg), the “Effect on potential of addicting drugs to induce psychological dependence (in words)” value is “apparently inhibited the potential of the addicting drugs to induce psychological dependence”. Besides, the “CPP score” value in the series on Male Sprague-Dawley rats [1] (male, Sprague-Dawley, rat, in vivo, sc, 0.3 mg/kg, 6 days) was -37 s; in the series on Male Sprague-Dawley rats [1] (male, Sprague-Dawley, rat, in vivo, sc, 1 mg/kg, 6 days), -45 s; with Male Sprague-Dawley rats [1] (male, Sprague-Dawley, rat, in vivo, sc, 3 mg/kg, 6 days), -64 s. For the same molecule, the “Potential to induce psychological dependence (motivational effect, in words)” value with Male Sprague-Dawley rats [1] (rat, in vivo) is on record as “no potential to induce psychological dependence”.

With `CN[C@@H](C)Cc1ccccc1.Cl` [Methamphetamine, methamphetamine hydrochloride], the “Potential to induce psychological dependence (motivational effect, in words)” value in the series with Male Sprague-Dawley rats [1] (all doses tested) is given as “appetitive effects”. The “CPP score” value is 155 s with Male Sprague-Dawley rats [1] (methamphetamine 1 mg/kg i.p., average of eight); 224 s in the series on Male Sprague-Dawley rats [1] (methamphetamine 2 mg/kg i.p., average of eight); 151 s with Male Sprague-Dawley rats [1] (methamphetamine 4 mg/kg i.p., average of eight).

On to `CN1CC[C@]23c4c5ccc(O)c4O[C@H]2[C@@H](O)C=C[C@H]3[C@H]1C5.Cl` [Morphine, morphine hydrochloride], for which the results for the “CPP score” value with Male Sprague-Dawley rats [1] (setting [3]), in the series on Male Sprague-Dawley rats [1] (setting [4]) and in the series on Male Sprague-Dawley rats [1] (setting [5]) were 171 s, 187 s and 228 s, respectively. For the same molecule, in the series with Male Sprague-Dawley rats [1] (all doses tested), the “Potential to induce psychological dependence (motivational effect, in words)” value is on record as “appetitive effects”.
